Assays:
Zr-75-1 = experiment: ACTREC in vitro cytotoxicity, Zr-75-1; type: cell-based
Protocol: (§1) In vitro biological activity studies were carried out at the Advance Center for Treatment Research & Education in Cancer.

GURAV = experiment: ACTREC in vitro cytotoxicity, GURAV; type: cell-based
Protocol: as §1

MCF7 = experiment: ACTREC in vitro cytotoxicity, MCF7; type: cell-based
Protocol: as §1

HOP-62 = experiment: ACTREC in vitro cytotoxicity, HOP-62; type: cell-based
Protocol: as §1

Colo-205 = experiment: ACTREC in vitro cytotoxicity, Colo-205; type: cell-based
Protocol: as §1

A-2780 = experiment: ACTREC in vitro cytotoxicity, A-2780; type: cell-based; details: Ovary A-2780 (Table 4)
Protocol: as §1

Si-Ha = experiment: ACTREC in vitro cytotoxicity, Si-Ha; type: cell-based
Protocol: as §1

KB = experiment: ACTREC in vitro cytotoxicity, KB; type: cell-based
Protocol: as §1

[1] = system: duplex-form calf thymus DNA (CT-DNA); experiment: Thermal denaturation studies (DNA binding); details: [PBD]:[DNA] molar ratio 1:5, CT-DNA 100 μM, ligand 20 μM; for ΔTm after incubation at 37 °C for 0 h: pH 7.00, 0 h; for ΔTm after incubation at 37 °C for 18 h: pH 7.00, 18 h
Protocol: Compounds have been subjected to thermal denaturation studies with duplex-form calf thymus DNA (CT-DNA) using a modification of a reported procedure. Working solutions in aqueous buffer ([…] NaH2PO4/Na2HPO4, 1 mM Na2EDTA, pH 7.00±0.01) containing CT-DNA (100 μM in phosphate) and the PBD (20 μM) have been prepared by addition of concentrated PBD solutions in DMSO to obtain a fixed [PBD]/[DNA] molar ratio of 1:5. The DNA-PBD solutions have been incubated at 37° C. for 0 and 18 hrs prior to analysis. Samples have been monitored at 260 nm using a Beckman DU-800 spectrophotometer fitted with high performance temperature controller, and heated at 1° C. min^−1 in the 40-110° C. range. DNA helix→coil transition temperatures (Tm) have been obtained from the maxima in the d(A260)/dT derivative plots. Drug-induced alterations in DNA melting behavior are given by: […]Tm=Tm(DNA+PBD)-Tm(DNA alone), where the Tm value for the PBD-free CT-DNA is 68.5 […]0.01.
The DNA-binding for these C8-linked carbazole-PBD hybrids has been examined by thermal denaturation studies using calf thymus (CT) DNA. […] Data for 6a, 6b, 6c, 14a, 14b, and 14d and DC-81 are included in Table 5 for comparison.

PC-3 = experiment: ACTREC in vitro cytotoxicity, PC-3; type: cell-based
Protocol: as §1

A-549 = experiment: ACTREC in vitro cytotoxicity, A-549; type: cell-based; details: Lung A-549 (Table 4)
Protocol: as §1

SMILES | GI50 (Zr-75-1; Breast Zr-75-1 (Table 4)) [nM] | GI50 (GURAV; Oral GURAV (Table 4)) [nM] | GI50 (MCF7; Breast MCF7 (Table 4)) [nM] | GI50 (MCF7; breast (MCF-7)) [nM] | GI50 (HOP-62; Lung HOP-62 (Table 4)) [nM] | GI50 (HOP-62; non small cell lung (HOPO62)) [nM] | GI50 (Colo-205; Colon Colo-205 (Table 4)) [nM] | GI50 (Colo-205; colon (Colo205)) [nM] | GI50 (A-2780) [nM] | GI50 (Si-Ha; Cervix Si-Ha (Table 4)) [nM] | GI50 (KB; Oral KB (Table 4)) [nM] | ΔTm after incubation at 37 °C for 0 h [1] [°C] | ΔTm after incubation at 37 °C for 18 h [1] [°C] | GI50 (PC-3; Prostate PC-3 (Table 4)) [nM] | GI50 (PC-3; prostate (PC-3)) [nM] | GI50 (Si-Ha; Cervix (Si-Ha)) [nM] | GI50 (Zr-75-1; breast (Zr-75-1)) [nM] | GI50 (GURAV; oral (GURAV), text b39) [nM] | GI50 (KB; oral (KB), text b39) [nM] | GI50 (A-549) [nM]
COc1cc2c(cc1OCCCn1c3ccccc3c3ccccc31)N=C[C@@H]1CCCN1C2=O [Compound 6a, 7-Methoxy-8-[3-(9H-9-carbazoly)propoxy]-(11aS)-1,2,3,11a-tetrahydro-5H-pyrrolo[2,1-c][1,4]-benzodiazepin-5-one] | 1890 | 1600 | 1850 | 1850 | 1930 | 1930 | 1680 | 1680 | 1510 | 1700 | 1870 | 4.2 | 5.1 |  |  |  |  |  |  | 
COc1ccc(-c2ccc3c(c2)c2cc(-c4ccc(OC)cc4)ccc2n3CCCCOc2cc3c(cc2OC)C(=O)N2CCC[C@H]2C=N3)cc1 [Compound 10e, 7-Methoxy-8-{4-[3,6-di(4-methoxyphenyl)-9H-9-carbazoly]butoxy}-(11aS)-1,2,3,11a-tetrahydro-5H-pyrrolo[2,1-c][1,4]-benzodiazepin-5-one] |  |  | 150 | 150 |  |  | 2900 |  | 2000 | 170 |  |  |  | 160 | 160 | 170 |  |  |  | 
COc1cc2c(cc1OCCCCn1c3ccccc3c3ccccc31)N=C[C@@H]1CCCN1C2=O [Compound 6b, 7-Methoxy-8-[4-(9H-9-carbazoly)butoxy]-(11aS)-1,2,3,11a-tetrahydro-5H-pyrrolo[2,1-c][1,4]benzodiazepin-5-one] | 1810 | 1600 | 2210 |  | 1930 | 1930 | 1700 | 1700 | 1570 | 1700 | 1870 | 4.3 | 4.8 |  |  |  | 1810 |  |  | 
COc1cc2c(cc1OCCCCN1CCN(CCCCn3c4ccccc4c4ccccc43)CC1)N=C[C@@H]1CCCN1C2=O [Compound 14d, 7-Methoxy-8-(4-{-4-[4-(9H-9-carbazoly)butyloxy]piperazino}butyloxy)-(11aS)-1,2,3,11a-tetrahydro-5H-pyrrolo[2,1-c][1,4]benzodiazepin-5-one] | 150 | 170 | 170 | 150 | 1820 |  | 160 | 160 | 160 | 170 | 150 | 7.9 | 8.4 |  |  |  | 170 | 170 | 150 | 
COc1cc2c(cc1OCCCCCCn1c3ccccc3c3ccccc31)N=C[C@@H]1CCCN1C2=O [Compound 6d, 7-Methoxy-8-[6-(9H-9-carbazoly)hexyloxy]-(11aS)-1,2,3,11a-tetrahydro-5H-pyrrolo[2,1-c][1,4]-benzodiazepin-5-one] | 2140 | 1710 | 1650 | 1650 | 1580 | 1580 | 1620 | 1620 | 1700 | 1580 | 1950 |  |  |  |  |  |  |  |  | 
COc1ccc(-c2ccc3c(c2)c2cc(-c4ccc(OC)cc4)ccc2n3CCCOc2cc3c(cc2OC)C(=O)N2CCC[C@H]2C=N3)cc1 [Compound 10d, 7-Methoxy-8-{3-[3,6-di(4-methoxyphenyl)-9H-9-carbazoly]propoxy}-(11aS)-1,2,3,11a-tetrahydro-5H-pyrrolo[2,1-c][1,4]-benzodiazepin-5-one] |  |  | 130 | 130 | 110 | 110 | 1700 | 1700 | 150 | 170 | 180 |  |  | 160 |  |  |  |  |  | 2100
COc1cc2c(cc1OCCCN1CCN(CCCCn3c4ccccc4c4ccccc43)CC1)N=C[C@@H]1CCCN1C2=O [Compound 14b, 7-Methoxy-8-(3-{4-[4-(9H-9-carbazoly)butyloxy]piperazino}propyloxy)-(11aS)-1,2,3,11a-tetrahydro-5H-pyrrolo[2,1-c][1,4]benzodiazepin-5-one] | 150 | 130 | 150 | 150 | 140 | 140 | 140 | 140 | 110 | 130 | 140 | 7.8 | 8.5 |  |  |  | 150 |  |  | 
